Assay results reported in patent US20250340848A1, “METHODS FOR CHEMICAL REPROGRAMMING AND PLURIPOTENT STEM CELLS” (Peking University, priority 2022, published 2025).

System: hADSCs
Experiment: Three-stage conversion of hADSCs into hCiPSCs (methods of EXAMPLE 1), numbers of hCiPSC colonies
Type: cell-based, human
Source text: FIG. 1 illustrates a schematic of an exemplary method for converting human somatic cells into pluripotent stem cells. The method has 3 stages. During any of the 3 stages, any cell can proliferate and give rise to progeny cells. In stage 1, a first population of cells comprising somatic cells are contacted with a first composition for about 4-12 days. The first population of cells can comprise somatic cells (e.g., fibroblasts or primary human adult adipose derived mesenchymal stromal cells (hADSCs)). During and/or subsequent to contacting the first composition, at least a subset of the cells of the first population of cells or the progenies thereof are converted into a second population of cells. The second population of cells can comprise epithelial-like cells. In stage 2, the second population of cells or the progenies thereof are then contacted with a second composition for about 4-16 days. During and/or subsequent to contacting the second composition, at least a subset of the cells of the second population of cells or the progenies thereof are converted into a third population of cells. The third population of cells can comprise intermediate plastic state cells. In stage 3, the third population of cells or the progenies thereof are contacted with a third composition for about 6-12 days. During and/or subsequent to contacting the third composition, at least a subset of the cells of the third population of cells or the progenies thereof are converted into a fourth population of cells.
FIG. 2 illustrates a schematic of an exemplary method for converting human fibroblasts into pluripotent stem cells. The method can comprise 3 stages. During any of the 3 stages, any cell can proliferate and give rise to progeny cells. In stage 1, a first population of cells comprising fibroblasts is contacted with a first composition for about 8-10 days. During and/or subsequent to contacting the first composition, at least a subset of the cells of the first population of cells or the progenies thereof are converted into a second population of cells. The second population of cells can comprise epithelial-like cells. The epithelial-like cells express an increased amount of LIN28A, relative to the first population of cells or their progenies. In stage 2, the second population of cells or the progenies thereof are then contacted with a second composition for about 12-16 days. During and/or subsequent to contacting the second composition, at least a subset of the cells of the second population of cells or the progenies thereof are converted into a third population of cells. The third population of cells can comprise intermediate plastic state cells. The intermediate plastic state cells express both SALL4 and LIN28A. In stage 3, the third population of cells or the progenies thereof are contacted with a third composition for about 8-10 days. During and/or subsequent to contacting the third composition, at least a subset of the cells of the third population of cells or the progenies thereof are converted into a fourth population of cells. […] The second conversion medium can then be removed from the cells. […] The third stage 3 medium may allow the pluripotent stem cells or the progenies thereof to proliferate.
In one experiment, when converting hCiPSCs from somatic cell (e.g., hADSCs), hypoxia with 5% O2 was used in stage 1 conversion. After stage 1 conversion, cells were incubated with 21% O2. The induction medium was changed every 3-4 days. hADSCs were seeded at a density of 1×10^4 cells per well of a 12-well plate in 15% FBS-DMEM medium and would be changed into stage 1 conversion medium the next day. For stage 1 conversion, single layer epithelial-like cells induced from hADSCs would emerge at day 4-6 and approach 100% confluence at day 8-12. Then the medium was changed into stage 2 conversion medium. […]

[1] = factor removed from the stage 2 conversion medium, FIG. 17
[2] = factor removed from the stage 1 conversion medium, FIG. 4
[3] = various combinations supplemented to stage 1 conversion medium comprising CHIR99021, 616452, TTNPB and AKT Kinase Inhibitor, FIG. 5
[4] = factor removed from the stage 3 conversion medium, FIG. 19

With `Nc1ncnc2c1c(I)cn2[C@@H]1O[C@H](CO)[C@@H](O)[C@H]1O` [5-ITU, (2R,3R,4S,5R)-2-(4-amino-5-iodopyrrolo[2,3-d]pyrimidin-7-yl)-5-(hydroxymethyl)oxolane-3,4-diol] the “increase of the numbers of converted hCiPSCs” value (added to the stage 2 conversion medium, relative to medium without it, FIGS. 7A-7B) was “more than 5 fold” and the “numbers of converted hCiPSCs” value [1] was “minimal numbers of converted hCiPSCs”.
With `Cc1cnc(-c2cnc(NCCNc3ccc(C#N)cn3)nc2-c2ccc(Cl)cc2Cl)[nH]1` [CHIR99021, 6-[[2-[[4-(2,4-Dichlorophenyl)-5-(5-methyl-1H-imidazol-2-yl)-2-pyrimidinyl]amino]ethyl]amino]-3-pyridinecarbonitrile] the “numbers of converted hCiPSCs” value [2] was “minimal numbers of converted hCiPSCs” and the “numbers of converted hCiPSCs” value [1] was “minimal numbers of converted hCiPSCs”.
For `O=C(O)c1ccc2c(c1)nc(Nc1cccc(Cl)c1)c1ccncc12` [CX-4945, 5-(3-chloroanilino)benzo[c][2,6]naphthyridine-8-carboxylic acid], the reprogramming efficiency (AKTi and CX4945 included in the stage 2 conversion medium (Base), FIG. 18) was “significantly improved the reprogramming efficiency”.
In the case of `Nc1nccc2c1ncn2[C@@H]1C=C(CO)[C@@H](O)[C@H]1O` [DZNep, (1S,2R,5R)-5-(4-Amino-1H-imidazo[4,5-c]pyridin-1-yl)-3-(hydroxymethyl)-3-cyclopentene-1,2-diol], the “numbers of converted hCiPSCs” value [1] is reported as “minimal numbers of converted hCiPSCs” and the “numbers of converted hCiPSCs” value [3] is reported as “significantly increase the numbers of converted hCiPSCs”.
With `CC(C)N(C[C@H]1O[C@@H](n2cnc3c(N)ncnc32)[C@H](O)[C@@H]1O)[C@H]1C[C@@H](CCc2nc3cc(C(C)(C)C)ccc3[nH]2)C1` [EPZ5676, (2R,3R,4S,5R)-2-(6-amino-9H-purin-9-yl)-5-((((1r,3S)-3-(2-(5-(tert-butyl)-1H-benzo[d]imidazol-2-yl)ethyl)cyclobutyl)(isopropyl)amino)methyl)tetrahydrofuran-3,4-diol] the “numbers of converted hCiPSCs” value [1] was “reduced the numbers of converted hCiPSCs” and the “numbers of converted hCiPSCs” value [3] was “significantly increase the numbers of converted hCiPSCs”.
`Cc1cc(NC(=O)c2cccc(NC(=O)/C=C/CN(C)C)c2)ccc1Nc1nccc(-c2cccnc2)n1` [JNKIN8, 3-[[(E)-4-(dimethylamino)but-2-enoyl]amino]-N-[3-methyl-4-[(4-pyridin-3-ylpyrimidin-2-yl)amino]phenyl]benzamide] was tested, and the “numbers of converted hCiPSCs” value [1] was “minimal numbers of converted hCiPSCs”.
For `O=C(NOC[C@H](O)CO)c1ccc(F)c(F)c1Nc1ccc(I)cc1F` [PD0325901], the “numbers of converted hCiPSCs” value [4] was “minimal numbers of converted hCiPSCs”.
In the case of `N#CC[C@H](C1CCCC1)n1cc(-c2ncnc3[nH]ccc23)cn1` [Ruxolitinib, (3R)-3-cyclopentyl-3-[4-(7H-pyrrolo[2,3-d]pyrimidin-4-yl)pyrazol-1-yl]propanenitrile], the “numbers of converted hCiPSCs” value [3] is reported as “significantly increase the numbers of converted hCiPSCs”.
With `CNC1CCC(N(Cc2cccc(-c3ccncc3)c2)C(=O)c2sc3ccccc3c2Cl)CC1.Cl` (stereo not drawn) [SAG, 3-chloro-N-[4-(methylamino)cyclohexyl]-N-[(3-pyridin-4-ylphenyl)methyl]-1-benzothiophene-2-carboxamide;hydrochloride] the “numbers of converted hCiPSCs” value [3] was “significantly increase the numbers of converted hCiPSCs”.
With `CN(C)CCOc1ccc(-c2nc(-c3ccc4c(c3)CCC4=NO)c(-c3ccncc3)[nH]2)cc1` [SB590885, 5-[2-[4-[2-(Dimethylamino)ethoxy]phenyl]-5-(4-pyridinyl)-1H-imidazol-4-yl]-2,3-dihydro-1H-inden-1-one oxime] the “numbers of converted hCiPSCs” value [4] was “minimal numbers of converted hCiPSCs”.
`CC(=O)N1CCN([C@H]2CCC[C@@H](NC(=O)c3cc4c(F)ccc(C)c4[nH]3)C2)CC1.O=C(O)C(F)(F)F` [SETD2-IN-1, N-[(1R,3S)-3-(4-acetylpiperazin-1-yl)cyclohexyl]-4-fluoro-7-methyl-1H-indole-2-carboxamide;2,2,2-trifluoroacetic acid] was tested, and the “numbers of converted hCiPSCs” value (supplemented to the stage 1 conversion medium, FIG. 6) was “significantly increased the numbers of converted hCiPSCs”.
For `COc1ccc(CCc2nc3cc(-c4c(C)noc4C)ccc3n2C[C@H](C)N2CCOCC2)cc1Cl` [SGC-CBP30, 2-[2-(3-chloro-4-methoxyphenyl)ethyl]-5-(3,5-dimethyl-4-isoxazolyl)-1-[(2S)-2-(4-morpholinyl)propyl]-1H-benzimidazole], the “numbers of converted hCiPSCs” value [1] was “minimal numbers of converted hCiPSCs”.
`C/C(=C\c1ccc(C(=O)O)cc1)c1ccc2c(c1)C(C)(C)CCC2(C)C` [TTNPB, 4-[(E)-2-(5,6,7,8-Tetrahydro-5,5,8,8-tetramethyl-2-naphthalenyl)-1-propenyl]benzoic acid] was tested, and the “numbers of converted hCiPSCs” value [2] was “minimal numbers of converted hCiPSCs” and the “numbers of converted hCiPSCs” value [1] was “minimal numbers of converted hCiPSCs”.
With `CCCC(CCC)C(=O)O` [VPA, valproic acid] the “numbers of converted hCiPSCs” value [4] was “minimal numbers of converted hCiPSCs”.
For `Cc1cccc(-c2n[nH]cc2-c2ccc3ncccc3n2)n1` [compound 616452, 2-(3-(6-Methylpyridin-2-yl)-1H-pyrazol-4-yl)-1,5-naphthyridine], the “numbers of converted hCiPSCs” value [2] was “minimal numbers of converted hCiPSCs” and the “numbers of converted hCiPSCs” value [1] was “minimal numbers of converted hCiPSCs”.
